Source: patent US20160024086A1, “AZAINDOLE RETINOIC ACID RECEPTOR-RELATED ORPHAN RECEPTOR MODULATORS AND USES THEREOF” (INNOV17 LLC, priority 2014, published 2016)

Columns and labels:
Format in all cases: cell-based
Conditions in all cases: 72 h; human CD4+ T cells under TH17-polarizing conditions, 3 days, supernatant ELISA
IL-17A = assay: Human TH17 cytokine inhibition as measured by ELISA (IL-17A)
Procedure: (§1) Human TH17 Cytokine Inhibition as Measured by ELISA
(§2) Peripheral blood mononuclear cells (PBMCs) were sourced from freshly prepared leukocyte enriched plasma (buffy coat) from healthy donors (New York Blood Center). PBMCs were isolated by density gradient centrifugation using Ficoll-Paque™ PLUS (GE Healthcare). Human CD4+ T cells were seeded into 96-well plates (5×10^4 cells/well) and activated with plate-bound anti-human (h)-CD3 antibody and soluble h-aCD28 (both at 1 ug/ml; eBioscience) and differentiated into TH17 cells with 20 ng/mL h-IL-6, 5 ng/mL h-TGF-β1, 10 ng/mL h-IL-23 (eBioscience) and 10 ng/mL IL-1β (Miltenyi Biotec) in serum-free TexMACS Medium (Miltenyi Biotec) supplemented with 1% Penicillin/Streptomycin (Lonza) for 3 days. CD4+ T cells propagated under TH17-polarizing conditions were cultured in the presence or absence of various concentrations of compounds with a final concentration of 0.1% DMSO. Supernatants were collected and stored at −20° C. until assayed for IL-17A, IL-17F and IL-21 levels by “Ready-Set-Go” ELISA kits (eBioscience) as per manufacturer's instructions. Endpoint absorbance was read at 450 nm using a microplate reader (Perkin Elmer).

IL-17F = assay: Human TH17 cytokine inhibition as measured by ELISA (IL-17F)
Procedure: as §1, §2

IL-22 = assay: Human TH17 cytokine inhibition as measured by ELISA (IL-22)
IL-21 = assay: Human TH17 cytokine inhibition as measured by ELISA (IL-21)
Procedure: as §1, §2

Measured: IC50

C[C@H]1C[C@H](Cn2ccc3nc(-c4cn[nH]c4)ccc32)CN1C(=O)CCc1ccccc1 (racemic) [Example 40, rac.-trans-1-(4-((5-(1H-pyrazol-4-yl)-1H-pyrrolo[3,2-b]pyridin-1-yl)methyl)-2-methylpyrrolidin-1-yl)-3-phenylpropan-1-one]
< 10 µM: all assays above

C[C@@H]1C[C@H](Cn2ccc3nc(-c4cn[nH]c4)ccc32)CN1C(=O)CCc1ccccc1 (racemic) [Example 41, rac.-cis-1-(4-((5-(1H-pyrazol-4-yl)-1H-pyrrolo[3,2-b]pyridin-1-yl)methyl)-2-methylpyrrolidin-1-yl)-3-phenylpropan-1-one]
< 10 µM: IL-17A | IL-17F | IL-21

O=C(CCc1ccccc1)N1CCC(Cn2ccc3nc(-c4cn[nH]c4)ccc32)CC1 [Example 3, 1-(4-((5-(1H-pyrazol-4-yl)-1H-pyrrolo[3,2-b]pyridin-1-yl)methyl)piperidin-1-yl)-3-phenylpropan-1-one]
< 10 µM: IL-17A | IL-17F | IL-21

O=C(CC1CCCCC1)N1CCC(Cn2ccc3nc(-c4cn[nH]c4)ccc32)CC1 [Example 4, 1-(4-((5-(1H-pyrazol-4-yl)-1H-pyrrolo[3,2-b]pyridin-1-yl)methyl)piperidin-1-yl)-2-cyclohexylethanone]
< 10 µM: IL-17A | IL-17F | IL-21

O=C(Cc1ccccc1)N1CCC(Cn2ccc3nc(-c4cn[nH]c4)ccc32)CC1 [Example 7, 1-(4-((5-(1H-pyrazol-4-yl)-1H-pyrrolo[3,2-b]pyridin-1-yl)methyl)piperidin-1-yl)-2-phenylethanone]
< 10 µM: IL-17A | IL-17F | IL-21

CC1(C)CC(Cn2ccc3nc(-c4cn[nH]c4)ccc32)CN1C(=O)c1ccccc1 (stereo not drawn) [Example 19, (4-((5-(1H-pyrazol-4-yl)-1H-pyrrolo[3,2-b]pyridin-1-yl)methyl)-2,2-dimethylpyrrolidin-1-yl)(phenyl)methanone]
< 10 µM: IL-17A | IL-17F | IL-21

O=S(=O)(c1ccccc1)N1CCC(Cn2ccc3nc(-c4cn[nH]c4)ccc32)CC1 [Example 30, 1-((1-(phenylsulfonyl)piperidin-4-yl)methyl)-5-(1H-pyrazol-4-yl)-1H-pyrrolo[3,2-b]pyridine]
< 10 µM: all assays above

O=S(=O)(Cc1ccccc1)N1CCC(Cn2ccc3nc(-c4cn[nH]c4)ccc32)CC1 [Example 32, 1-((1-(benzylsulfonyl)piperidin-4-yl)methyl)-5-(1H-pyrazol-4-yl)-1H-pyrrolo[3,2-b]pyridine]
< 10 µM: all assays above
